Test results: ChEMBL document CHEMBL1201862, “PubChem BioAssay data set” (2004)
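Five compound concentrations were applied to cells in 96-well plates for 48 hours; endpoints were derived by simple linear interpolation of the resulting dose-response curve. Here, GI50 denotes the concentration required for 50% inhibition of growth.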 The source made the active and inactive calls. Rule as the data show it: active = GI50 up to about 1.1 µM and inactive = higher.

Tests used:
Test in all cases: NCI-60 cell line screen, 48 h
786-0 = system: 786-0
A549 = system: A549
CAKI-1 = system: CAKI-1
CCRF-CEM = system: CCRF-CEM
EKVX = system: EKVX
HCT-116 = system: HCT-116
HOP-62 = system: HOP-62
HT-29 = system: HT-29
K562 = system: K562
KM12 = system: KM12
MDA-MB-231 = system: MDA-MB-231
MDA-N = system: MDA-N
Malme-3M = system: Malme-3M
NCI-H226 = system: NCI-H226
OVCAR-8 = system: OVCAR-8
SF-295 = system: SF-295
SN12C = system: SN12C
SNB-19 = system: SNB-19
SNB-75 = system: SNB-75
HCC 2998 = system: HCC 2998

SMILES	GI50 (786-0)	GI50 (A549)	GI50 (CAKI-1)	GI50 (CCRF-CEM)	GI50 (EKVX)	GI50 (HCT-116)	GI50 (HOP-62)	GI50 (HT-29)	GI50 (K562)	GI50 (KM12)	GI50 (MDA-MB-231)	GI50 (MDA-N)	GI50 (Malme-3M)	GI50 (NCI-H226)	GI50 (OVCAR-8)	GI50 (SF-295)	GI50 (SN12C)	GI50 (SNB-19)	GI50 (SNB-75)	GI50 (HCC 2998)
CCOC(=O)C1C(O)CC2c3ccccc3-c3ccccc3C21 (stereo unspecified)	30.4 µM (inactive)	44.9 µM (inactive)	> 100 µM (inactive)	8.85 µM (inactive)	> 100 µM (inactive)	19.8 µM (inactive)	31.2 µM (inactive)	68.1 µM (inactive)	96.2 µM (inactive)	36.1 µM (inactive)	25.9 µM (inactive)	69 µM (inactive)	> 100 µM (inactive)	3.2 µM (inactive)	21.5 µM (inactive)	43.7 µM (inactive)	> 100 µM (inactive)	33.5 µM (inactive)	27.1 µM (inactive)	–
CC(=O)OCC1OC(c2nc3ccccc3s2)=CC(OC(C)=O)C1OC(C)=O (stereo unspecified)	> 100 µM (inactive)	> 100 µM (inactive)	> 100 µM (inactive)	> 100 µM (inactive)	> 100 µM (inactive)	57.5 µM (inactive)	> 100 µM (inactive)	> 100 µM (inactive)	50.5 µM (inactive)	> 100 µM (inactive)	> 100 µM (inactive)	> 100 µM (inactive)	> 100 µM (inactive)	> 100 µM (inactive)	> 100 µM (inactive)	> 100 µM (inactive)	> 100 µM (inactive)	> 100 µM (inactive)	22.2 µM (inactive)	–
COc1ccc(N)c(C(=O)CCNC(C)=O)c1 [KINURENAMINE]	> 100 µM (inactive)	> 100 µM (inactive)	> 100 µM (inactive)	> 100 µM (inactive)	> 100 µM (inactive)	> 100 µM (inactive)	–	> 100 µM (inactive)	–	> 100 µM (inactive)	> 100 µM (inactive)	> 100 µM (inactive)	–	> 100 µM (inactive)	> 100 µM (inactive)	> 100 µM (inactive)	> 100 µM (inactive)	> 100 µM (inactive)	> 100 µM (inactive)	–
Clc1ccccc1/C=C/c1nsc(/C=C/c2ccccc2Cl)n1	19 µM (inactive)	73.8 µM (inactive)	> 100 µM (inactive)	22.7 µM (inactive)	61 µM (inactive)	34.8 µM (inactive)	36.6 µM (inactive)	35.2 µM (inactive)	21.8 µM (inactive)	88.9 µM (inactive)	60 µM (inactive)	35 µM (inactive)	53.7 µM (inactive)	> 100 µM (inactive)	94 µM (inactive)	54 µM (inactive)	23.6 µM (inactive)	> 100 µM (inactive)	71.4 µM (inactive)	–
CCc1cc(-c2nsc(=O)o2)c(S(=O)(=O)CC)s1	> 100 µM (inactive)	> 100 µM (inactive)	56.9 µM (inactive)	32.6 µM (inactive)	> 100 µM (inactive)	43.3 µM (inactive)	> 100 µM (inactive)	84.9 µM (inactive)	37.2 µM (inactive)	38.4 µM (inactive)	–	75 µM (inactive)	–	> 100 µM (inactive)	88.1 µM (inactive)	> 100 µM (inactive)	> 100 µM (inactive)	77.8 µM (inactive)	> 100 µM (inactive)	37.2 µM (inactive)
COc1ccc2nc3cc(Cl)ccc3c(NCCCN(Cc3cc(OC)c(OC)c(OC)c3)Cc3cc(OC)c(OC)c(OC)c3)c2c1	12.1 µM (inactive)	14.6 µM (inactive)	14.4 µM (inactive)	–	13.5 µM (inactive)	0.174 µM (active)	4.65 µM (inactive)	2.31 µM (inactive)	1.19 µM (inactive)	13.8 µM (inactive)	< 0.01 µM (active)	–	17.7 µM (inactive)	14 µM (inactive)	12.1 µM (inactive)	3.33 µM (inactive)	16.8 µM (inactive)	17.4 µM (inactive)	–	14.3 µM (inactive)
CCCN(CCC)CCc1cc(C(C)=O)n(S(=O)(=O)c2ccc(C)cc2)c1	> 100 µM (inactive)	> 100 µM (inactive)	84.7 µM (inactive)	> 100 µM (inactive)	> 100 µM (inactive)	> 100 µM (inactive)	> 100 µM (inactive)	45.6 µM (inactive)	80.9 µM (inactive)	> 100 µM (inactive)	–	–	> 100 µM (inactive)	> 100 µM (inactive)	> 100 µM (inactive)	> 100 µM (inactive)	> 100 µM (inactive)	> 100 µM (inactive)	> 100 µM (inactive)	> 100 µM (inactive)
